Results on three compounds are retold here after US20030224024A1, “Compositions comprising cyclopentane derivatives and their use” (priority 2002, published 2003).

Assay [1] has as its system isolated stratum corneum. Description: Keratolytic power, Test 2: counting corneocytes released from patches of isolated stratum corneum. The assay is classed as cell-based. To be noted: 1% by weight solution in PBS + 0.1% Triton X100, pH 7.4, 37° C., 24 hours; for number of liberated corneocytes per microlitre, Sample 1 (3 tests): Test 2, Sample 1, average over three tests; for number of liberated corneocytes per microlitre, Sample 2 (3 tests): Test 2, Sample 2, average over three tests; for number of liberated corneocytes per microlitre, Average: Test 2, average of Samples 1 and 2. On the procedure:
(§1) The keratolytic power of a number of compounds of the disclosure was studied. This test comprises counting corneocytes released following incubation of patches of isolated stratum corneum in the presence of the test compounds.
(§2) Stratum corneum isolated by trypsin/heat from surgical plasties was used. A number of different stratum corneum samples were used. Discs of 4 mm in diameter were punched out and placed at the bottom of a 96-well plate.
A 1% by weight solution of the compound of Example 1 or salicylic acid, was prepared in a PBS buffer supplemented with 0.1% of Triton X100. The pH of the solution was adjusted to 7.4.
50 microlitres of test solution or of control solution (PBS buffer supplemented with 0.1% of Triton X100) were added to each well. Incubation was carried out at 37° C. with stirring for 24 hours.
(§3) 10 microlitres of solution were then withdrawn and were placed in a Malassez cell. The liberated corneocytes were counted under the microscope.
The results obtained are as follows, expressed as the number of liberated corneocytes per microlitre. Corneocyte fragments were not counted.

The test system of assay [2] is isolated stratum corneum. Description: Keratolytic power, Test 1: counting corneocytes released from patches of isolated stratum corneum. Format: cell-based. Conditions: 1% by weight solution in PBS + 0.1% Triton X100, pH 7.4, 37° C., 24 hours. On the procedure: as §1, §2
A 1% by weight solution of the compound of Example 1, or (1R,2R)-3-oxo-2-(2Z)pentylcyclopentaneacetic acid (comparative), was prepared in a PBS buffer supplemented with 0.1% of Triton X100. The pH of the solution was adjusted to 7.4.
50 microlitres of test solution or of control solution (PBS buffer supplemented with 0.1% of Triton:X100) were added to each well. Incubation was carried out at 37° C. with stirring for 24 hours.
as §3
The results obtained are as follows, expressed as the number of liberated corneocytes per microlitre, averaged over three tests. Corneocyte fragments were not counted.

As to `CC/C=C\C[C@H]1C(=O)CC[C@@H]1CC(=O)O` (racemic) [Example 1, (±)(1R,2R)-3-oxo-2-[(2Z)-2-pentenyl]cyclopentaneacetic acid], in the assay with isolated stratum corneum [1], the “number of liberated corneocytes per microlitre, Sample 1 (3 tests)” value was 80 ± 4 liberated corneocytes per microlitre; the “number of liberated corneocytes per microlitre, Sample 2 (3 tests)” value is 64 ± 11 liberated corneocytes per microlitre; the “number of liberated corneocytes per microlitre, Average” value was 72 ± 7 liberated corneocytes per microlitre. Also, in the assay on isolated stratum corneum [2], the “number of liberated corneocytes per microlitre, Average (3 tests per sample, 3 different samples)” value was 15 ± 5 liberated corneocytes per microlitre.
Take `CC/C=C\C[C@H]1C(=O)CC[C@@H]1CC(=O)O` [Comparative, (1R,2R)-3-oxo-2-(2Z)pentylcyclopentaneacetic acid]: in the assay on isolated stratum corneum [2], the “number of liberated corneocytes per microlitre, Average (3 tests per sample, 3 different samples)” value is 12 ± 4 liberated corneocytes per microlitre.
For the compound `O=C(O)c1ccccc1O` [Salicylic acid, salicylic acid], in the assay with isolated stratum corneum [1], the “number of liberated corneocytes per microlitre, Sample 1 (3 tests)” value is 33 ± 20 liberated corneocytes per microlitre; the “number of liberated corneocytes per microlitre, Sample 2 (3 tests)” value is given as 21 ± 8 liberated corneocytes per microlitre; the “number of liberated corneocytes per microlitre, Average” value is given as 27 ± 14 liberated corneocytes per microlitre.
